Assay results as given in patent US10227331B2 (priority 2015, dated 2019).

Assays:
NDM-1 = NDM-1 (Klebsiella pneumoniae, UniProt C7C422); test: biochemical; assay type: biochemical; conditions: CCF2-FA substrate, 2 hours at 25° C; read-out: NDM-1 IC50
How it was run: (§1)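 Fluorescence assay, CCF2-FA substrate (cephalosporin core linking 7-hydroxycoumarin to fluorescein); inhibitor + MBL + substrate, 2 h, 25° C. IC50 by 4-parameter fit, semi-log plot.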

IMP-1 = IMP-1 (Serratia marcescens, UniProt P52699); test: biochemical; assay type: biochemical; conditions: CCF2-FA substrate, 2 hours at 25° C; read-out: IMP-1 IC50
IMP-1, sequence (P52699 whole entry, looked up, species assumed): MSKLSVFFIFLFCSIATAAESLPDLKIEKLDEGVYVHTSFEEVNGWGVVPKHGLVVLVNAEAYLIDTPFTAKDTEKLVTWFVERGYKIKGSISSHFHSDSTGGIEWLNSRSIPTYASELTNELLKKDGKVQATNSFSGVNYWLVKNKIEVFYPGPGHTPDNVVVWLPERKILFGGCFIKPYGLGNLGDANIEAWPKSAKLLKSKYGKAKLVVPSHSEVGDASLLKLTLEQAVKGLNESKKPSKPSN
How it was run: as §1

[1] = test system: P. aeruginosa expressing IMP-1, efflux+ (MB9798); assay type: cell-based, Pseudomonas aeruginosa; conditions: for P. aeruginosa expressing IMP-1, efflux+ (MB9798) MITC95: imipenem at 2 μg/mL, in the presence of a class A, C, D serine β-lactamase inhibitor closely related to relebactam; for Efflux ratio: ratio MITC95 PA_9798/MITC95 PA_9799
From the text: (§2) The strain background is Pseudomonas aeruginosa PAO1.

[2] = test system: P. aeruginosa expressing IMP-1, efflux− (MB9799); test: Efflux: concentration of MBL inhibitor which restores susceptibility to imipenem; assay type: cell-based, Pseudomonas aeruginosa; conditions: imipenem at 2 μg/mL, in the presence of a class A, C, D serine β-lactamase inhibitor closely related to relebactam
From the text: as §2

VIM-1 = VIM-1 (Pseudomonas aeruginosa (strain ATCC 15692 / DSM 22644 / CIP 104116 / JCM 14847 / LMG 12228 / 1C / PRS 101 / PAO1), UniProt A0A0F7KYQ8); test: biochemical; conditions: CCF2-FA substrate, 2 hours at 25° C
How it was run: as §1

[3] = test system: Klebsiella pneumoniae expressing VIM-1 (IHMA599644); assay type: cell-based; conditions: with imipenem 1 μg/ml; 95% inhibition of bacterial growth
How it was run: (§3)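 Colonies from overnight 35 °C blood-agar cultures were suspended in saline, diluted 1:100 into 1.1× CAMHB and exposed to test compound with or without imipenem at 1 μg/ml. After 22–24 h at 35 °C, absorbance was read to find the concentration restoring imipenem susceptibility.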

[4] = test system: Serratia marcescens expressing IMP-1 (CL5741); assay type: cell-based; conditions: with imipenem 1 μg/ml; 95% inhibition of bacterial growth
How it was run: as §3

[5] = test system: Escherichia coli expressing NDM-1 (CLB30005, CLB30016); assay type: cell-based; conditions: with imipenem 1 μg/ml; 95% inhibition of bacterial growth
How it was run: as §3

NDM-1, sequence (C7C422 whole entry, looked up, species assumed): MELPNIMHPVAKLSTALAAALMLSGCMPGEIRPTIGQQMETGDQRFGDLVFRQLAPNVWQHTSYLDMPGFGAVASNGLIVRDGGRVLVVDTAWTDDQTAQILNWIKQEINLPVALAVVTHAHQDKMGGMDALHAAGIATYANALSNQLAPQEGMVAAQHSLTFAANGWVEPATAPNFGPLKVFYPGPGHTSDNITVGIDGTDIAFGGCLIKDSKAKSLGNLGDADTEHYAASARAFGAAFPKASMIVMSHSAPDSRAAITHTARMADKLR

SMILES	IC50 (NDM-1) [nM]	IC50 (IMP-1) [nM]	P. aeruginosa expressing IMP-1, efflux+ (MB9798) MITC95 [1] [µM]	Efflux ratio [1]	P. aeruginosa expressing IMP-1, efflux− (MB9799) MITC95 [2] [µM]	IC50 (VIM-1) [nM]	Klebsiella pneumoniae expressing VIM-1 (IHMA599644) MITC95 [3] [µM]	Serratia marcescens expressing IMP-1 (CL5741) MITC95 [4] [µM]	Escherichia coli expressing NDM-1 (CLB30016) MITC95 [5] [µM]
Nc1nc2cc(-c3ccc(S(=O)(=O)C4CNC4)c(S(N)(=O)=O)c3-c3nn[nH]n3)ccn2n1 [Example 217, 3-(2-amino-[1,2,4]triazolo[1,5-a]pyridin-7-yl)-6-(azetidin-3-ylsulfonyl)-2-(2H-tetrazol-5-yl) benzenesulfonamide]	1.49	3.81	12.5	8.00	1.563	0.313	6.25	3.125	6.25
NS(=O)(=O)c1c(S(=O)(=O)C2CNC2)ccc(C2=CCS(=O)(=O)CC2)c1-c1nn[nH]n1 [Example 218, 6-(azetidin-3-ylsulfonyl)-3-(1,1-dioxido-3,6-dihydro-2H-thiopyran-4-yl)-2-(2H-tetrazol-5-yl) benzenesulfonamide]	1.75	3.55	12.5	8.00	1.563	2.23	3.125	1.563	0.3906
Nc1ncccc1-c1ccc(S(=O)(=O)C2CNC2)c(S(N)(=O)=O)c1-c1nn[nH]n1 [Example 219, 3-(2-aminopyridin-3-yl)-6-(azetidin-3-ylsulfonyl)-2-(2H-tetrazol-5-yl) benzenesulfonamide]	0.647	5.66	6.25	4.88	1.281	0.52	1.281	0.6406	0.125
NS(=O)(=O)c1c(S(=O)(=O)C2CNC2)ccc(-c2cccnc2N2CCOCC2)c1-c1nn[nH]n1 [Example 220, 6-(azetidin-3-ylsulfonyl)-3-(2-morpholinopyridin-3-yl)-2-(2H-tetrazol-5-yl) benzenesulfonamide]	0.901	14.9	100	32.00	3.125	0.337	12.5	12.5	6.25
N=C(N)Nc1ccccc1-c1ccc(S(=O)(=O)C2CNC2)c(S(N)(=O)=O)c1-c1nn[nH]n1 [Example 221, 4-(azetidin-3-ylsulfonyl)-2′-guanidino-2-(2H-tetrazol-5-yl)-[1,1′-biphenyl]-3-sulfonamide]	5.13	44	50	16.00	3.125	6.95	12.5	12.5	6.25
NS(=O)(=O)c1c(S(=O)(=O)C2CNC2)ccc(C2CCOCC2)c1-c1nn[nH]n1 [Example 222, 6-(azetidin-3-ylsulfonyl)-3-(tetrahydro-2H-pyran-4-yl)-2-(2H-tetrazol-5-yl)benzenesulfonamide]	1.49	4.3	100	63.98	1.563	2.45	3.125	3.125	3.125
Nc1cccc(-c2ccc(S(=O)(=O)C3CNC3)c(S(N)(=O)=O)c2-c2nn[nH]n2)n1 [Example 223, 3-(6-aminopyridin-2-yl)-6-(azetidin-3-ylsulfonyl)-2-(2H-tetrazol-5-yl)benzenesulfonamide]	2.51	10.2	6.25	2.00	3.125	3.16	6.25	3.125	0.7813
Nc1nccc(-c2ccc(S(=O)(=O)C3CNC3)c(S(N)(=O)=O)c2-c2nn[nH]n2)c1N [Example 224, 6-(azetidin-3-ylsulfonyl)-3-(2,3-diaminopyridin-4-yl)-2-(2H-tetrazol-5-yl)benzenesulfonamide]	0.618	2.58	3.125	2.00	1.563	1.29	3.125	3.125	0.7813
NCCS(=O)(=O)c1ccc(-c2cccc3nc(N)nn23)c(-c2nn[nH]n2)c1S(N)(=O)=O [Example 225, 3-(2-amino-[1,2,4]triazolo[1,5-a]pyridin-5-yl)-6-((2-aminoethyl)sulfonyl)-2-(2H-tetrazol-5-yl)benzenesulfonamide]	0.164	1.97	3.125	2.00	1.563	0.229	3.125	1.563	1.563
NS(=O)(=O)c1c(SC2CCNCC2)ccc(-c2ccc(C3CCNCC3)cc2)c1-c1nnn[nH]1 [Example 226, 4′-(piperidin-4-yl)-4-(piperidin-4-ylthio)-2-(1H-tetrazol-5-yl)-[1,1′-biphenyl]-3-sulfonamide]	15.1	35.7	25	32.00	0.7813	48.5	6.25	3.125	1.563
NS(=O)(=O)c1c([S+]([O-])C2CCNCC2)ccc(-c2ccc(C3CCNCC3)cc2)c1-c1nnn[nH]1 (stereo not drawn) [Example 227, 4′-(piperidin-4-yl)-4-(piperidin-4-ylsulfinyl)-2-(1H-tetrazol-5-yl)-[1,1′-biphenyl]-3-sulfonamide]	1.95	5.9	3.125	2.00	1.563	1.18	6.25	6.25	3.125
